In patent US11554106B2, “Prevention of the risks associated with drug-induced QT interval prolongation by using a specific inhibitor of the production of ROS of miochondrial origin” (priority 2017, dated 2023):

What was measured:
[1] = test system: acute organochlorine poisoning; test: Treatment of a cat with acute organochlorine poisoning; assay type: in vivo; conditions: one cat, unpublished experiment
Text: Knowing that when ROS are overexpressed by mitochondria, this induces a simultaneous overproduction of cytosolic ROS, whose production source is NADPH oxidase (or NOX, usually NOX4 and NOX2), some authors conclude that NOX are the first responsible when in fact mitochondrial production is the culprit (Gosh R. et al., J. Clin. Diagn. Res., 2017, 11: BC09-BC12; Mangum L. C. et al., Chem. Res. Toxicol, 2015, 28: 570-584).

QT and QTc intervals = test: Moxifloxacin-induced QT prolongation in dogs (single-dose cross-over, telemetry ECG); assay type: in vivo, male Beagle dogs
Procedure: Principle: This is a single-dose study in dogs to examine the protective effect of ATT on QT prolongation induced by the intravenous (IV) injection of a dose of moxifloxacin, which is considered the reference substance (positive control).
Methodology: This is a cross-over and single-dose study conducted on 4 groups of 4 male Beagle dogs receiving, depending on the group: • Group 1—control group: intraperitoneal injection [i.p.] of the ATT vehicle; • Group 2—ATT, 5 mg/kg, administered i.p.; • Group 3—moxifloxacin, 15 mg/kg, administered as a slow IV injection in 5% lactic acid at 0.5 mL/kg; and • Group 4—an ATT dose of 5 mg/kg is injected i.p. 30 minutes before a slow IV dose of moxifloxacin of 15 mg/kg (see above).
In this study, each dog is equipped with an implantable teletransmitter of the “DSI radio-telemetry transmitter” type allowing continuous ECG recording over 24 hours in 10-minute sequences, including the measurement of PQ, QRS, QT and QTc spaces (correction according to the Van de Water formula), heart rate as well as systolic and diastolic BP and mean BP. ECG analysis is performed using Notocord Systems® ECG51a software and BP analysis using APR30a software, also from Notocord Systems®.

QTcF interval = test: TQT study of moxifloxacin-induced QT prolongation in healthy volunteers; assay type: in vivo, humans; conditions: 75 mg ATT oral 60 minutes before 400 mg oral moxifloxacin
Procedure: Principle: Following the 2005 ICH E14 recommendation (FDA, 2005), a TQT study (“through QT study”) was conducted in healthy volunteers to evaluate the protective effect of ATT on QT prolongation induced by a single oral dose of 400 mg moxifloxacin.
Methodology: This was a single-dose, cross-over study conducted in healthy volunteers.
The volunteers, 16 men aged 18 to 40, were selected based on the following criteria: medical history, physical examination (including a BMI between 18 and 26 kg/m2), vital signs, clinical examinations, biological check-up and 12-lead ECG.
The selected volunteers were equipped with a Holter ECG for a 24-hour recording.
Four sequences were tested with a 7-day wash-out period between each: • 1st sequence—no treatment was given; • 2nd sequence—each volunteer received a 400 mg oral dose of moxifloxacin; • 3rd sequence—each volunteer took 75 mg of ATT by mouth (3 tablets of Sulfarlem® 25); and • 4th sequence—each volunteer received a 400 mg oral dose of moxifloxacin, 60 minutes after an oral dose of 75 mg ATT (3 tablets of Sulfarlem® 25). […]

tenocytes = conditions: pre-incubation of tenocytes with ATT at 10 μM for 3 hours; oxidative stress induced by FQ (ciprofloxacin, ofloxacin, pefloxacin); cited from earlier work
human Jurkat T cells = conditions: cited from earlier work
[2] = rats; cited from earlier work
[3] = 70 years marketed in France; cited from earlier work
[4] = marketed form; cited from earlier work
[5] = test system: 1Q site of the respiratory chain; conditions: cited from earlier work

Compound: COc1ccc(-c2cc(=S)ss2)cc1 [ATT, 5-(4-methoxyphenyl)-3H-1,2-dithiole-3-thione]
- outcome of treatment of acute organochlorine poisoning [1]: successfully treated
- QT and QTc intervals (QT and QTc intervals; ATT 5 mg/kg i.p. 30 minutes before moxifloxacin 15 mg/kg slow IV): maintained in the normal range
- upper limit of the confidence interval of the effect of moxifloxacin on the QTcF interval (QTcF interval): less than 10 msec
- cellular production of ROS (tenocytes): significantly reduces
- free radical scavenger and antioxidant activity (human Jurkat T cells): powerful free radical scavenger and antioxidant
- Vd [2]: about 2 L/kg
- side effects relating to long-term use [3]: no side effects have been reported

Compound: Oc1ccc(-c2cc(=S)ss2)cc1 [ATX, 4-OH-anethole trithione]
- circulating product found after oral administration of ATT [4]: most of the circulating product found is ATX
- solubility in water (Solubility in water): insoluble in water

Compound: O=[N+]([O-])c1ccc(Oc2ccc(S(=O)(=O)NC3CCCCC3)cc2)cc1 [NC-POBS, N-cyclohexyl-4-(4-nitrophenoxy)benzenesulfonamide]
- specific inhibition of mitochondrial ROS production [5]: specific inhibitor of mitochondrial ROS production

Compound: COc1c(N2C[C@@H]3CCCN[C@@H]3C2)c(F)cc2c(=O)c(C(=O)O)cn(C3CC3)c12 [moxifloxacin]
- QT and QTc intervals (QT and QTc intervals; moxifloxacin 15 mg/kg slow IV alone): significantly increased
